What is called IC50 is the concentration that inhibits the measured activity by half.

Where only a bound is given, the exact number is not on record here.

The values that follow come from patent US9708316B2 (BRISTOL-MYERS SQUIBB COMPANY, priority 2014, dated 2017).

The target of one assay is HIS-TGFβR2 WT (Homo sapiens, UniProt P37173). Nature of the assay: HTRF probe-displacement assay, HIS-TGFβR2 WT. The format is binding.
The target of a further assay is T1, HIS-TGFβR1 T204D (Homo sapiens, UniProt P36897, T204D).
T1 sequence (P36897 34-503 T204D): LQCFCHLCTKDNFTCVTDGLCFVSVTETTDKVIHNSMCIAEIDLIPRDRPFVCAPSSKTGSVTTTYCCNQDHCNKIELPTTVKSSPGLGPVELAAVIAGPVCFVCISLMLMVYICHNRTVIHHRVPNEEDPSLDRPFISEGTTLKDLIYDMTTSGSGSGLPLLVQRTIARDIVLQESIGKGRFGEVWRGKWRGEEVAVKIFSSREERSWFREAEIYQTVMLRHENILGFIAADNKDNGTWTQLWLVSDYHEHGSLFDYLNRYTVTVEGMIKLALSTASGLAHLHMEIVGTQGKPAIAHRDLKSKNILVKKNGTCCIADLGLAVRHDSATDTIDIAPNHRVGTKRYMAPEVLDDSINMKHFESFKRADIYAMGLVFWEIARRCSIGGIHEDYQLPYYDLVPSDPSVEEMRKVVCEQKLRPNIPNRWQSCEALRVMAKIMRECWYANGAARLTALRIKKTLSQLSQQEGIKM
Nature of the assay: HTRF probe-displacement assay, HIS-TGFβR1 T204D. As to conditions: read-out: TGFβR1 (μM) IC50. The format is binding. On the technique in general: TR-FRET usually uses a lanthanide donor and a delayed reading to cut background.

Sequence of HIS-TGFβR2 WT (P37173 23-567): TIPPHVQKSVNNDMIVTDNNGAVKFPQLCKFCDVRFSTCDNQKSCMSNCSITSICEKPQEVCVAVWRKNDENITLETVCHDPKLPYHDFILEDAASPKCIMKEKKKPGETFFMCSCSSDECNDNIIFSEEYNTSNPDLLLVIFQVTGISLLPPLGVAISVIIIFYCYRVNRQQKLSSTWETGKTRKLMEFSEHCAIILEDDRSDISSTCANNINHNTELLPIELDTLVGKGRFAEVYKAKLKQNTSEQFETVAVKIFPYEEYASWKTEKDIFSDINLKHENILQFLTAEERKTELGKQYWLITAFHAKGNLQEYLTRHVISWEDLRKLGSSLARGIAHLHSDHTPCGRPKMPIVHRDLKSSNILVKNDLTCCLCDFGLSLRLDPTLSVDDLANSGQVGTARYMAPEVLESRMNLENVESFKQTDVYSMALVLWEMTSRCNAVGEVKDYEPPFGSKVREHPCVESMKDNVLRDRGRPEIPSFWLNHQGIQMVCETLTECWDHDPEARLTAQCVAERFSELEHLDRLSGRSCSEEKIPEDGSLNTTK

In the case of `CC(=O)Nc1cc(-c2[nH]c3cccnc3c2-c2ccc(C#N)s2)ccn1` [Example 188, N-(4-(3-(5-Cyanothiophen-2-yl)-1H-pyrrolo[3,2-b]pyridin-2-yl)pyridin-2-yl)acetamide], the values for the IC50 at HIS-TGFβR2 WT and on HIS-TGFβR1 T204D were 0.24 µM and 0.0104 µM, respectively.

In the case of `COc1ccc(-c2c(-c3ccnc(NC(=O)CN4CC[C@H](O)C4)c3)[nH]c3cc(OC)cnc23)nc1` [Example 121, 2-[(3S)-3-Hydroxypyrrolidin-1-yl]-N-{4-[6-methoxy-3-(5-methoxypyridin-2-yl)-1H-pyrrolo[3,2-b]pyridin-2-yl]pyridin-2-yl}acetamide], the results for the half-inhibitory concentration (IC50) at HIS-TGFβR2 WT and at HIS-TGFβR1 T204D were > 15 µM and 0.001 µM, respectively.

As to `O=C(CN1CCC(O)CC1)Nc1cc(-c2[nH]c3cc(Cl)cnc3c2-c2ccc(F)cn2)ccn1` [Example 244, N-(4-(6-Chloro-3-(5-fluoropyridin-2-yl)-1H-pyrrolo[3,2-b]pyridin-2-yl)pyridin-2-yl)-2-(4-hydroxypiperidin-1-yl)acetamide], the values for the IC50 at HIS-TGFβR2 WT and at HIS-TGFβR1 T204D were 7.82 µM and 0.003 µM, respectively.

Consider `COC(=O)Nc1cc(-c2[nH]c3cc(Cl)cnc3c2-c2ccc(F)cn2)ccn1` [Example 85, Methyl N-{4-[6-chloro-3-(5-fluoropyridin-2-yl)-1H-pyrrolo[3,2-b]pyridin-2-yl]pyridin-2-yl}carbamate], for which the figures for the concentration for half-maximal inhibition (IC50) at HIS-TGFβR2 WT and at HIS-TGFβR1 T204D were 4.05 µM and 0.01 µM, respectively.

For `COCCCc1ccnc2c(-c3cccc(C(F)F)n3)c(-c3ccnc(NC(C)=O)c3)[nH]c12` [Example 131, N-(4-{3-[6-(Difluoromethyl)pyridin-2-yl]-7-(3-methoxypropyl)-1H-pyrrolo[3,2-b]pyridin-2-yl}pyridin-2-yl)acetamide], the concentration for half-maximal inhibition (IC50) was 3.84 µM at HIS-TGFβR2 WT and 0.001 µM on HIS-TGFβR1 T204D.

On to `COc1ccnc2c(-c3cccc(C)n3)c(-c3ccnc(NC(C)=O)c3)[nH]c12` [Example 257, N-(4-(7-Methoxy-3-(6-methylpyridin-2-yl)-1H-pyrrolo[3,2-b]pyridin-2-yl)pyridin-2-yl)acetamide], for which the results for the IC50 at HIS-TGFβR2 WT and on HIS-TGFβR1 T204D were 6.21 µM and 0.003 µM, respectively.

Take `COc1ccc(-c2c(-c3ccnc(NC(C)=O)c3)[nH]c3c(C)ccnc23)nc1` [Example 217, N-(4-(3-(5-Methoxypyridin-2-yl)-7-methyl-1H-pyrrolo[3,2-b]pyridin-2-yl)pyridin-2-yl)acetamide]: the IC50 at HIS-TGFβR2 WT and on HIS-TGFβR1 T204D was > 15 µM in each case.

In the case of `COc1ccc(-c2c(-c3ccnc(NC(C)=O)c3)[nH]c3c(C(F)F)ccnc23)cn1` [Example 213, N-(4-(7-(Difluoromethyl)-3-(6-methoxypyridin-3-yl)-1H-pyrrolo[3,2-b]pyridin-2-yl)pyridin-2-yl)acetamide], the concentration for half-maximal inhibition (IC50) was 0.118 µM on HIS-TGFβR2 WT and 0.0061 µM at HIS-TGFβR1 T204D.

As for `COc1ccc(-c2c(-c3ccnc(NC(C)=O)c3)[nH]c3c(C(=O)NC(CO)CO)cc(Cl)nc23)cn1` [Example 58, 5-Chloro-N-(1,3-dihydroxypropan-2-yl)-2-(2-acetamidopyridin-4-yl)-3-(6-methoxypyridin-3-yl)-1H-pyrrolo[3,2-b]pyridine-7-carboxamide], the IC50 at HIS-TGFβR2 WT amounted to 9.23 µM; on HIS-TGFβR1 T204D, 0.017 µM.

With `CC(=O)Nc1cc(-c2[nH]c3cc(F)cnc3c2-c2ncc(C(F)F)s2)ccn1` [Example 182, N-(4-(3-(5-(Difluoromethyl)thiazol-2-yl)-6-fluoro-1H-pyrrolo[3,2-b]pyridin-2-yl)pyridin-2-yl)acetamide], the concentration for half-maximal inhibition (IC50) at HIS-TGFβR2 WT was > 15 µM; at HIS-TGFβR1 T204D, 0.182 µM.

Take `CC(=O)Nc1cc(-c2[nH]c3c(Cl)ccnc3c2-c2ccc(Cl)cn2)ccn1` [Example 63, N-{4-[7-Chloro-3-(5-chloropyridin-2-yl)-1H-pyrrolo[3,2-b]pyridin-2-yl]pyridin-2-yl}acetamide]: the IC50 was > 15 µM on HIS-TGFβR2 WT and 0.019 µM on HIS-TGFβR1 T204D.

With `COc1cnc2c(-c3nc(C(F)(F)F)cs3)c(-c3ccnc(NC(C)=O)c3)[nH]c2c1` [Example 229, N-(4-(6-Methoxy-3-(4-(trifluoromethyl)thiazol-2-yl)-1H-pyrrolo[3,2-b]pyridin-2-yl)pyridin-2-yl)acetamide], the IC50 at HIS-TGFβR2 WT turned out to be 10.9 µM; at HIS-TGFβR1 T204D, 0.0014 µM.

For the compound `COc1ccc(-c2c(-c3ccnc(NC(C)=O)c3)[nH]c3cc(Cl)cnc23)nc1Cl` [Example 180, N-(4-(6-Chloro-3-(6-chloro-5-methoxypyridin-2-yl)-1H-pyrrolo[3,2-b]pyridin-2-yl)pyridin-2-yl)acetamide], the 50% inhibitory concentration (IC50) at HIS-TGFβR2 WT is > 15 µM; at HIS-TGFβR1 T204D, 0.0274 µM.

On to `CC(=O)Nc1cc(-c2[nH]c3c(OCCN4CCCC4)ccnc3c2-c2cccc(C(F)F)n2)ccn1` [Example 126, N-(4-{3-[6-(Difluoromethyl)pyridin-2-yl]-7-[2-(pyrrolidin-1-yl)ethoxy]-1H-pyrrolo[3,2-b]pyridin-2-yl}pyridin-2-yl)acetamide], for which the 50% inhibitory concentration (IC50) on HIS-TGFβR2 WT was > 15 µM; at HIS-TGFβR1 T204D, 0.009 µM.

`CCc1ccnc(-c2c(-c3ccnc(NC(C)=O)c3)[nH]c3cccnc23)c1` [Example 29, N-{4-[3-(4-Ethylpyridin-2-yl)-1H-pyrrolo[3,2-b]pyridin-2-yl]pyridin-2-yl}acetamide]: the results for the IC50 at HIS-TGFβR2 WT and at HIS-TGFβR1 T204D were > 15 µM and 0.017 µM, respectively.

As to `CC(=O)Nc1cc(-c2[nH]c3cccnc3c2-c2cccc3ccncc23)ccn1` [Example 19, N-{4-[3-(Isoquinolin-8-yl)-1H-pyrrolo[3,2-b]pyridin-2-yl]pyridin-2-yl}acetamide], the IC50 came out at 0.19 µM at HIS-TGFβR2 WT and 0.023 µM on HIS-TGFβR1 T204D.

Take `COc1ccc(-c2c(-c3ccnc(NC(C)=O)c3)[nH]c3ccc(F)nc23)nc1` [Example 37, N-{4-[5-Fluoro-3-(5-methoxypyridin-2-yl)-1H-pyrrolo[3,2-b]pyridin-2-yl]pyridin-2-yl}acetamide]: the values for the IC50 at HIS-TGFβR2 WT and at HIS-TGFβR1 T204D were > 15 µM and 0.002 µM, respectively.

`CC(=O)Nc1cc(-c2[nH]c3cccnc3c2-c2csc(C)n2)ccn1` [Example 211, N-(4-(3-(2-Methylthiazol-4-yl)-1H-pyrrolo[3,2-b]pyridin-2-yl)pyridin-2-yl)acetamide]: the IC50 was found to be 1.04 µM on HIS-TGFβR2 WT and 0.0049 µM on HIS-TGFβR1 T204D.

Turning to `CC(=O)Nc1cc(-c2[nH]c3cccnc3c2-c2nccc(Cl)n2)ccn1` [Example 197, N-(4-(3-(4-Chloropyrimidin-2-yl)-1H-pyrrolo[3,2-b]pyridin-2-yl)pyridin-2-yl)acetamide], the concentration for half-maximal inhibition (IC50) at HIS-TGFβR2 WT was > 15 µM; on HIS-TGFβR1 T204D, 3.54 µM.

Turning to `O=C(CNCCCN1CCOCC1)Nc1cc(-c2[nH]c3cc(Cl)cnc3c2-c2ccc(F)cn2)ccn1` [Example 89, N-{4-[6-Chloro-3-(5-fluoropyridin-2-yl)-1H-pyrrolo[3,2-b]pyridin-2-yl]pyridin-2-yl}-2-{[3-(morpholin-4-yl)propyl]amino}acetamide], the results for the concentration for half-maximal inhibition (IC50) on HIS-TGFβR2 WT and on HIS-TGFβR1 T204D were 4.81 µM and 0.003 µM, respectively.

Turning to `CCOc1ccc(-c2c(-c3ccnc(NC(C)=O)c3)[nH]c3cc(Cl)cnc23)cn1` [Example 258, N-(4-(6-Chloro-3-(6-ethoxypyridin-3-yl)-1H-pyrrolo[3,2-b]pyridin-2-yl)pyridin-2-yl)acetamide], the IC50 on HIS-TGFβR2 WT was found to be 6.29 µM; at HIS-TGFβR1 T204D, 0.002 µM.

As for `COc1ccc(-c2c(-c3ccnc(NC(C)=O)c3)n(C)c3cccnc23)cn1` [Example 54, N-{4-[3-(6-Methoxypyridin-3-yl)-1-methyl-1H-pyrrolo[3,2-b]pyridin-2-yl]pyridin-2-yl}acetamide], the results for the IC50 at HIS-TGFβR2 WT and at HIS-TGFβR1 T204D were 3.61 µM and 0.021 µM, respectively.

Consider `COc1ccc(-c2c(-c3ccnc(NC(C)=O)c3)[nH]c3c(CO)ccnc23)cn1` [Example 274, N-(4-(7-(Hydroxymethyl)-3-(6-methoxypyridin-3-yl)-1H-pyrrolo[3,2-b]pyridin-2-yl)pyridin-2-yl)acetamide], for which the IC50 amounted to 0.114 µM on HIS-TGFβR2 WT and 0.001 µM at HIS-TGFβR1 T204D.

On to `COc1ccc(-c2c(-c3ccnc(NC(=O)CN4CCN(C)CC4)c3)[nH]c3cc(OC)cnc23)nc1` [Example 119, N-{4-[6-Methoxy-3-(5-methoxypyridin-2-yl)-1H-pyrrolo[3,2-b]pyridin-2-yl]pyridin-2-yl}-2-(4-methylpiperazin-1-yl)acetamide], for which the IC50 was > 15 µM at HIS-TGFβR2 WT and < 0.001 µM on HIS-TGFβR1 T204D.

Take `CC(=O)Nc1cc(-c2[nH]c3c(CO)ccnc3c2-c2ccc(Cl)nc2)ccn1` [Example 278, N-(4-(3-(6-Chloropyridin-3-yl)-7-(hydroxymethyl)-1H-pyrrolo[3,2-b]pyridin-2-yl)pyridin-2-yl)acetamide]: the IC50 on HIS-TGFβR2 WT was 0.709 µM; on HIS-TGFβR1 T204D, 0.011 µM.

Turning to `COc1cnc2c(-c3nc(C(F)F)cs3)c(-c3ccnc(NC(C)=O)c3)[nH]c2c1` [Example 227, N-(4-(3-(4-(Difluoromethyl)thiazol-2-yl)-6-methoxy-1H-pyrrolo[3,2-b]pyridin-2-yl)pyridin-2-yl)acetamide], the values for the IC50 at HIS-TGFβR2 WT and at HIS-TGFβR1 T204D were 0.725 µM and 0.0006 µM, respectively.

`COc1ccc(-c2c(-c3ccnc(NC(C)=O)c3)[nH]c3cc(F)cnc23)cn1` [Example 40, N-{4-[6-Fluoro-3-(6-methoxypyridin-3-yl)-1H-pyrrolo[3,2-b]pyridin-2-yl]pyridin-2-yl}acetamide]: the IC50 turned out to be 0.067 µM at HIS-TGFβR2 WT and 0.005 µM at HIS-TGFβR1 T204D.

On to `CC(=O)Nc1cc(-c2[nH]c3nccnc3c2-c2cccc(Cl)n2)ccn1` [Example 55, N-{4-[7-(6-Chloropyridin-2-yl)-5H-pyrrolo[2,3-b]pyrazin-6-yl]pyridin-2-yl}acetamide], for which the results for the concentration for half-maximal inhibition (IC50) on HIS-TGFβR2 WT and on HIS-TGFβR1 T204D were 0.069 µM and 0.003 µM, respectively.
